The values below come from ChEMBL document CHEMBL1130600, “Tropane-based amino acids for peptide structure-function studies: inhibitors of platelet aggregation” (Bioorg Med Chem Lett, 1998).

For this test, the species on record is Homo sapiens. Briefly: Compound was tested for its ability to inhibit the thrombin-induced platelet aggregation in washed human platelets. In kind it is functional.
The compound `NC(N)=NCCCC(N)C(=O)N1C2CCC(C(=O)NC(CC(=O)O)C(=O)NC(CO)C(=O)O)C1CC2` (stereo unspecified) had an IC50 of 23 µM. This lies in the double-digit micromolar range.

In turn, `NC(N)=NCCCC(N)C(=O)N1C2CC=C(C(=O)NC(CC(=O)O)C(=O)NC(CO)C(=O)O)C1CC2` (stereo unspecified) came in with an IC50 of 270 µM.

For the compound `CC(=O)NC(CCCCN)C(=O)N1CCCC(C(=O)NCCC(=O)O)C1` (stereo unspecified), the IC50 is 60 µM.

Regarding `CC(=O)NC(CCCCN)C(=O)N1C2CCC1C(C(=O)NCCC(=O)O)C2` (stereo unspecified), the 50% inhibitory concentration (IC50) was above 500 µM.

The compound `CC(=O)N[C@H](CCCCN)C(=O)N1C2CC=C(C(=O)NCCC(=O)O)C1CC2` (stereo partly specified) registered an IC50 of 160 µM.

For `CC(=O)NC(CCCCN)C(=O)N1C2CC=C(C(=O)NCCC(=O)O)C1CC2` (stereo unspecified), the IC50 is above 500 µM.

As for `CC(=O)NC(CCCCN)C(=O)N1C2CCC(C(=O)NCCC(=O)O)C1CC2` (stereo unspecified), inhibition was half-maximal at 370 µM (IC50).

Consider `CC(=O)N[C@H](CCCCN)C(=O)N1CCCC(C(=O)NCCC(=O)O)C1` (stereo partly specified), for which the IC50 was 20 µM.

`CC(=O)N[C@H](CCCCN)C(=O)N1C2CCC1C(C(=O)NCCC(=O)O)C2` (stereo partly specified) registered an IC50 above 500 µM.

`NC(N)=NCCCC(N)C(=O)N1C2CCC1C(C(=O)NC(CC(=O)O)C(=O)NC(CO)C(=O)O)C2` (stereo unspecified) displayed an IC50 of 402 µM.

`CC(=O)N[C@H](CCCCN)C(=O)N1C2CCC(C(=O)NCCC(=O)O)C1CC2` (stereo partly specified): half-maximal inhibition (IC50) required 30 µM.
